Experimental data as given in publication PMC3944389, “Differential Neuroprotective Effects of 5′-Deoxy-5′-Methylthioadenosine” (PLoS ONE, 2014).

Experiments:
[1] = system: co-culture of bovine-brain endothelial cells (BBECs) and newborn rat astrocytes; test: In vitro cell model of transport across the BBB; assay type: in vitro ADME
Protocol: A in vitro cell model of BBB permeability was established using a co-culture of bovine-brain endothelial cells (BBECs) and newborn rat astrocytes. The cells were first cultured in 24-well (Transwell^R) permeable supports with a surface area of 0.33 cm^2 and a pore size of 0.4 µm (Corning), the upper surface of which was coated with collagen type IV and fibronectin. The inserts were then placed upside down in a large petri dish, and 40 µL of a suspension (containing approximately 45,000 astrocytes) was placed on the bottom of each filter. The petri dish was incubated at 37°C for 1 h, and 40 µL of fresh DMEM+S was added to the bottom of each filter every 15 min. The inserts were then transferred back to the plate and incubated at 37°C in 5% CO2 for 3 d. Then, 2 h before seeding the BBECs, the medium was replaced by DMEM+S supplemented with 125 µg/mL heparin and 2 h later, the cells were seeded onto the inserts (45,000 cells per filter). The plate was incubated at 37°C in 5% CO2 for 3 more days, after which the medium was replaced by DMEM+S supplemented with cyclic adenosine monophosphate (cAMP) and RO-20-1724, and kept at 37°C in 5% CO2. On day 8 of the co-culture, the transendothelial electrical resistance (TEER) was measured to determine whether the system was ready for transport studies. To validate the maturity of the model, permeability assays with lucifer yellow (LY) were performed in parallel as a marker of the integrity of the in vitro barrier. During the permeability assay, the samples were co-incubated with LY (20 µM) to assess the integrity of the cellular monolayer during the assay.

[2] = system: rat pure primary neuronal cultures; test: NMDA-induced caspase 3 activation in pure primary neuronal cultures; assay type: cell-based; conditions: 300 µM NMDA
Protocol: Primary cultures of rat brain cortical neurons were prepared essentially as described previously. The fronto-lateral cortical lobes were dissected out of Sprague-Dawley embryonic day 17 fetuses and they were dissociated mechanically in Hanks' balanced solution. After centrifugation at 800×g for 5 min, the cells were resuspended in serum-free Neurobasal medium (GIBCO) supplemented with B27 (GIBCO) containing 2 mM L-glutamine, penicillin (20 units/ml) and streptomycin (5 µg/ml), and they were plated onto poly-L-lysine-coated 24-well culture plates or on poly-L-lysine-coated 6-well culture plates. […]
(§1) To assay N-methyl–D-aspartate (NMDA) excitotoxicity, primary cultures were seeded in 24-well plates at 15×10^4 cells/well, cultured for 7 days in vitro, and treated for different times with the vehicle alone (dimethyl sulfoxide (DMSO) 1%), NMDA (300 µM), NMDA (300 µM) + MTA (250 µM) or NMDA (300 µM) + MK-801, a NMDA receptor antagonist (10 µM). […] Caspase 3 activity was measured in these lysates one hour after the NMDA addition.
(§2) Cortical neurons, or mixed cortical neurons and glia, were seeded in poly-L-lysine-coated 6-well culture plates during 7 days in vitro before start the set of experiments. […] The extracts were then centrifuged at 5,000×g for 10 min at 4°C and the protein content was determined by the BCA protein assay. […]

[3] = system: rat mixed astrocyte-neuron cultures; test: NMDA-induced caspase 3 activation in mixed astrocyte-neuron cultures; assay type: cell-based; conditions: pre- or co-treatment; MTA 250 µM, MK-801 10 µM; 300 µM NMDA
Protocol: Finally, to prepare neuron-astrocyte co-cultures, neurons were resuspended in B27 Neurobasal medium plus 10% of foetal bovine serum (FBS) and then seeded onto a monolayer of astrocytes in 24-well plates at a density of 1–2×10^5 cells per well, the astrocytes having been prepared beforehand, as described elsewhere. One day later, the medium was replaced with B27-Neurobasal plus 10% FBS medium, and the cells were maintained at 37°C in 5% CO2. The cultures were used 8–9 days after plating. Neurons and astrocytes were identified with antibodies against microtubule-associated protein-2 and GFAP, respectively.
as §1, §2

[4] = system: primary rat oligodendrocyte (OL) cultures; test: AMPA excitotoxicity in primary oligodendrocytes, calcein-AM viability; assay type: cell-based; conditions: MTA 100 and 300 µM pre-incubated 15 min, viability 24 h after AMPA
Protocol: Primary rat oligodendrocyte (OL) cultures were derived from the optic nerve of 12-day-old Sprague-Dawley rats, as described previously. Cells were seeded onto 12 mm diameter coverslips coated with poly-D-lysine (10 µg/ml) in 24-well plates at a density of 5×10^3 cells per well. The cells were maintained at 37°C in 5% CO2 and in a chemically defined medium. After 2–4 days in vitro, the cultures were composed of at least 98% O4/galactocerebroside-positive (O4/GalC) cells, while the majority of the remaining cells were stained with antibodies against glial fibrillary acidic protein (GFAP). No A2B5^+ or microglial cells were detected in these cultures.
For a-amino-3-hydroxy-5-methyl-4-isoxazolepropionic acid (AMPA) assays in primary rat OLs, cells were pre-incubated with MTA (100 µM and 300 µM) for 15 min and then exposed to AMPA (10 µM) for an additional period of 15 min. Cell viability was assessed with calcein-AM (Invitrogen) 24 h after application of AMPA, and the number of survival cells on each coverslip was detected by their fluorescence (515 nm filter) and quantified.

## 5′-deoxy-5′-methylthioadenosine [MTA]
[1]
  Pe x 10^−6 (cm/s): 4.5 x 10^−6 cm/s
  effective permeability coefficient (Pe): 4.5e-06 cm/s
[2]; co-treatment with MTA (100, 250 and 500 µM), 1 h
  survival of neurons exposed to NMDA (caspase 3 activity): not enhanced
[2]; pre-treatment 15 min before NMDA, MTA 100, 250 and 500 µM
  caspase 3 activity induced by NMDA: decreased significantly
[3]
  caspase 3 activation induced by NMDA: reverted to basal levels
[4]
  protection of OLs against AMPA toxicity (calcein-AM): fully protected
